According to patent US10004732B2 (Novartis AG, priority 2014, dated 2018):
Structures can show the parent of a compound that is named as a salt. Where two headings read alike, the source gives them in different places.

Assays:
PI 3-kinase alpha = PI 3-kinase alpha (Homo sapiens, UniProt P42336); assay: Kinase Glo Luminescent Kinase Assay (Kglo), assay A; format: biochemical; conditions: read-out: Assay A PI3Kα IC50
PI 3-kinase beta = PI 3-kinase beta (Homo sapiens, UniProt P42338); assay: Kinase Glo Luminescent Kinase Assay (Kglo), assay B; format: biochemical; conditions: read-out: Assay B PI3Kβ IC50
Sequence of PI 3-kinase beta (P42338 whole entry): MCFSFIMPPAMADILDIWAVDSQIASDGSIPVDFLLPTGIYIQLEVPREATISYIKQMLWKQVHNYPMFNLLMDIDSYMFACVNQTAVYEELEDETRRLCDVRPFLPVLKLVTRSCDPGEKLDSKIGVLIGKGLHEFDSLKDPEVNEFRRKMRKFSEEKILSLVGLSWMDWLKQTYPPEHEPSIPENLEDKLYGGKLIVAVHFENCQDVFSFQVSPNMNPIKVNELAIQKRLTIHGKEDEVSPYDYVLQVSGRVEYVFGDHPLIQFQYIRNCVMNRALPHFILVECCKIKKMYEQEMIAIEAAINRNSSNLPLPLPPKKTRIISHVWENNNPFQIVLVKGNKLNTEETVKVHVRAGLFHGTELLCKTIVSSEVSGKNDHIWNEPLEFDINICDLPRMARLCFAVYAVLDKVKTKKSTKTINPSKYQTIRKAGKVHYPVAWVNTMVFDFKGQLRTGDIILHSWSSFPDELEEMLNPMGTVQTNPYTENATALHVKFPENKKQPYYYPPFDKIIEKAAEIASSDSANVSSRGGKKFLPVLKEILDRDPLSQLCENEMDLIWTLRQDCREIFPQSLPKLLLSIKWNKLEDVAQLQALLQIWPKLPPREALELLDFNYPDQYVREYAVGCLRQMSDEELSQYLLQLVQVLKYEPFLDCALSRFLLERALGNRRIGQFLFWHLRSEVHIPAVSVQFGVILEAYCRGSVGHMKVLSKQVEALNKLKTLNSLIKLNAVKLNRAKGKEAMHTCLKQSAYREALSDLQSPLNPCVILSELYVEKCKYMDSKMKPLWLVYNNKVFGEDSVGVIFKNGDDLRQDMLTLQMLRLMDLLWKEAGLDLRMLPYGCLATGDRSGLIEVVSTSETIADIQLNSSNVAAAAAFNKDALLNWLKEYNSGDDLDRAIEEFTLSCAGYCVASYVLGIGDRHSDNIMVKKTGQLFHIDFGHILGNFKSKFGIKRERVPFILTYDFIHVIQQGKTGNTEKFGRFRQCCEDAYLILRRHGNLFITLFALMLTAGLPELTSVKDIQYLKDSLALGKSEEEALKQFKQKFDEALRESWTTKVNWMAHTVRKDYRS
Sequence of PI 3-kinase beta (P27986 461-568 partner): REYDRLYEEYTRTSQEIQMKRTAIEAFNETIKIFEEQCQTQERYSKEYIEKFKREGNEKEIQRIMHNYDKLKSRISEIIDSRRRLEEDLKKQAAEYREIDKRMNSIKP

Vps34 = Vps34 (Homo sapiens, UniProt Q8NEB9); assay: Kinase Glo Luminescent Kinase Assay (Kglo), assay C; format: biochemical; conditions: read-out: Assay C VPS34 IC50
Sequence of Vps34 (Q8NEB9 whole entry, species assumed): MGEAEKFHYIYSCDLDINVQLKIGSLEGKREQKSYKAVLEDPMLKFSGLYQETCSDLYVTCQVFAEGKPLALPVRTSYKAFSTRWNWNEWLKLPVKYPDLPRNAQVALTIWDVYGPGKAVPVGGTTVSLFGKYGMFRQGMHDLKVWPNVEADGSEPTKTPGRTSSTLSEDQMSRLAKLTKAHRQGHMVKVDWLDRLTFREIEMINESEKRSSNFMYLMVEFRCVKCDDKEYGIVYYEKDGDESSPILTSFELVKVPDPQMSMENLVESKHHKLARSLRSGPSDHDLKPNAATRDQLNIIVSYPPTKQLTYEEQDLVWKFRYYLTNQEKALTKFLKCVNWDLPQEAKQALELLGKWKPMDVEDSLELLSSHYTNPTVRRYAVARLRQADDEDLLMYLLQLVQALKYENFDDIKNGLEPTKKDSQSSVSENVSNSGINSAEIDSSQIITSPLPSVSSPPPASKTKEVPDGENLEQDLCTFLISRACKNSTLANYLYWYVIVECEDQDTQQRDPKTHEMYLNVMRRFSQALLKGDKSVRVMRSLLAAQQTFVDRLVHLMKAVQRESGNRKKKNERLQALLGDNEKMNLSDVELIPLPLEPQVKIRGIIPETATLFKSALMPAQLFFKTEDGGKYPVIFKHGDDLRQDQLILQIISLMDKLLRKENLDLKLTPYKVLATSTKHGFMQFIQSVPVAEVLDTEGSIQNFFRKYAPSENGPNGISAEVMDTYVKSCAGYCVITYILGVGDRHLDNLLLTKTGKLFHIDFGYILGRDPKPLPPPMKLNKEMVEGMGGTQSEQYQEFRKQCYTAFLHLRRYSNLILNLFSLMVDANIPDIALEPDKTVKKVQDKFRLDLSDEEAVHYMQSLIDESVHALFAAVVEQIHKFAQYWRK

PI 4-kinase beta = PI 4-kinase beta (Homo sapiens, UniProt Q9UBF8); assay: Kinase Glo Luminescent Kinase Assay (Kglo), assay D; format: biochemical; conditions: read-out: Assay D PI4Kβ IC50
Sequence of PI 4-kinase beta (Q9UBF8 whole entry): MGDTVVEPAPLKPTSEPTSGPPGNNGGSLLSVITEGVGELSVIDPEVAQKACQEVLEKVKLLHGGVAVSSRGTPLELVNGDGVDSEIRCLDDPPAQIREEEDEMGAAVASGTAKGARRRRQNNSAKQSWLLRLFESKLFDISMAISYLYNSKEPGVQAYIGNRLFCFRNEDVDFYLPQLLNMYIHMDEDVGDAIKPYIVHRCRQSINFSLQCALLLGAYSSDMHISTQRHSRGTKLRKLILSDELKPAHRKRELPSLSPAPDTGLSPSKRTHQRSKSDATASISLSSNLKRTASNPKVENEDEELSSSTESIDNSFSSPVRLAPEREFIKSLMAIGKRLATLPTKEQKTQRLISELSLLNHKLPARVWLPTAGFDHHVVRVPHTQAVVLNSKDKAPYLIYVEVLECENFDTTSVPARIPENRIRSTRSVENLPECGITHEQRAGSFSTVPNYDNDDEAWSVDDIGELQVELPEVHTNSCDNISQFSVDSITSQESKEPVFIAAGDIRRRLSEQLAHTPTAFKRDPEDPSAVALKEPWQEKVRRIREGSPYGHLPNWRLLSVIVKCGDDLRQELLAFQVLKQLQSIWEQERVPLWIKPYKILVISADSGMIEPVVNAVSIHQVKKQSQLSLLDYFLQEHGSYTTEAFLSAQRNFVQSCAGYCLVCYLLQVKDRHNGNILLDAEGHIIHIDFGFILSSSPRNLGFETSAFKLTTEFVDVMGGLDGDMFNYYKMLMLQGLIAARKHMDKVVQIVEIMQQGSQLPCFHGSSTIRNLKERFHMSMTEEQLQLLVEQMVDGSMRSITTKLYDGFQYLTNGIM

PI 3-kinase gamma = PI 3-kinase gamma (Homo sapiens, UniProt P48736); assay: TR-FRET Adapta assay, assay E; format: biochemical; conditions: read-out: Assay E PI3Kγ IC50
Sequence of PI 3-kinase gamma (P48736 whole entry): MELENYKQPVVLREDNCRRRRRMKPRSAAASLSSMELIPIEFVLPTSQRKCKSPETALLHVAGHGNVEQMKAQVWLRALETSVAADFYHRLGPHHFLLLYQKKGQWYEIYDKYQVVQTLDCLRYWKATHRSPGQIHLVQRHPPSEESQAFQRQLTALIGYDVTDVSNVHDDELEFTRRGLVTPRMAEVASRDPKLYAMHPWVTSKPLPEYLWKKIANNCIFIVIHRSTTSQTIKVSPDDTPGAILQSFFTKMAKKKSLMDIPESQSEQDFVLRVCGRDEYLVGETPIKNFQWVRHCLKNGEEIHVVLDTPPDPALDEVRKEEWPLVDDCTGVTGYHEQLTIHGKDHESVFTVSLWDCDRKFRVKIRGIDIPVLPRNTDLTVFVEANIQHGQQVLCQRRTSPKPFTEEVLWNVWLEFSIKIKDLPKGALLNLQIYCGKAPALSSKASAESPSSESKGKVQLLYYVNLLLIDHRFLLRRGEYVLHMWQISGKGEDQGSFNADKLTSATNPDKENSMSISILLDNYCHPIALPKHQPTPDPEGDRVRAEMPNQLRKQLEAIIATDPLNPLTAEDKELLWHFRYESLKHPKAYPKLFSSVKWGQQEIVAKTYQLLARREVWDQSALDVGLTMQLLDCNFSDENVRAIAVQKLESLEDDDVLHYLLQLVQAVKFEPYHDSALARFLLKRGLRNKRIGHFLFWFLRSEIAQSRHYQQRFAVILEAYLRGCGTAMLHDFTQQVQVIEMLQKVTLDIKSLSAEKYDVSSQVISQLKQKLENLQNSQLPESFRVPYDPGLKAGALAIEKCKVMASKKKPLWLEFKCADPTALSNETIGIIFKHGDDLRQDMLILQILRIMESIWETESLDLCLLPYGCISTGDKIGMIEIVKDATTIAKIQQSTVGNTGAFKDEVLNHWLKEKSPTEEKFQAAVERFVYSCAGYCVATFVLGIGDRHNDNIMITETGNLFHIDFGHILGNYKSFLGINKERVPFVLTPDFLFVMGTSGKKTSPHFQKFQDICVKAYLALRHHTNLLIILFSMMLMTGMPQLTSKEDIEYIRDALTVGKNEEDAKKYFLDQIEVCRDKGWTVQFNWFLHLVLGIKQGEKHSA
Protocol: TR-FRET Adapta Assay for PI 3-Kinase Gamma (E), PI 3-Kinase Delta (F)
The TR-FRET Adapta™ Universal Kinase Assay Kit was purchased from Invitrogen Corporation (Carlsbad/CA, USA) (Cat. No. PV5099).
PIK3CD substrate phosphatidylinositol (PI) was obtained from Invitrogen (vesicules consisting of 2 mM phosphatidylinositol (PI) in 50 mM HEPES pH7.5; Cat. No. PV5371). PIK3CG substrate phosphatidylinositol-4,5-bisphosphate (PIP(4,5)2 was obtained from Invitrogen (PIP2:PS large unilamellar vesicules consisting of 1 mM PIP2: 19 mM PS in 50 mM HEPES pH7.5, 3 mM MgCl2, 1 mM EGTA; Cat. No. PV5100).
Time-Resolved Fluorescence Resonance Energy Transfer (TR-FRET) is a technology based on energy transfer between two adjacent dyes, from an excited electron in one dye (the donor) to an electron of an adjacent dye (the acceptor) through resonance, then released as a photon. This energy transfer is detected by an increase in the fluorescence emission of the acceptor, and a decrease in the fluorescence emission of the donor. TR-FRET assays for protein kinases use a long-lifetime lanthanide Terbium or Europium chelates as the donor species which overcome interference from compound autofluorescence or light scatter from precipitated compounds, by introducing a delay after excitation by a flashlamp excitation source. Results are often expressed as a ratio of the intensities of the acceptor and donor fluorophores. The ratiometric nature of such a value corrects for differences in assay volumes between wells, as well as corrects for quenching effects due to colored compounds. The Adapta™ assay can be divided into two phases: a kinase reaction phase and an ADP detection phase. In the kinase reaction phase, all kinase reaction components are added to the well and the reaction is allowed to incubate for a set period of time specific for each kinase. […] In the presence of an inhibitor, the amount of ADP formed by the kinase reaction is reduced, and the resulting intact antibody-tracer interaction maintains a high TR-FRET signal.
50 nL of compound dilutions were dispensed onto white 384-well small volume polystyrene plate. Then 5 μL of either PI 3-kinase gamma or PI 3-kinase delta and lipid substrate (PI or PIP2:PS) followed by 5 μL of ATP (final assay volume 10 μL) are incubated at RT. The standard reaction buffer for the Adapta™ TR-FRET assay contained 10 mM Tris-HCl pH 7.5, 3 mM MgCl2, 50 mM NaCl, 1 mM DTT, 0.05% CHAPS 3-[(3-cholamidopropyl)dimethylammonio]-1-propanesulfonate).
Data are analyzed using Excel fit software or Graphpad Prism. IC50 values were derived by fitting a sigmoidal dose-response curve to a plot of assay readout over inhibitor concentration. All fits were performed with the program XLfit4 (ID Business Solutions, Guildford, UK). […] All fits were performed with the program XLfit4 (ID Business Solutions, Guildford, UK).

mTOR = mTOR (Homo sapiens, UniProt P42345); assay: Lanthascreen kinase binding assay, assay G; conditions: read-out: Assay G mTOR IC50
Protocol: Lanthascreen™ Kinase Binding Assay for mTOR (G)
Binding of an inhibitor to the kinase competes for binding with the tracer, resulting in a loss of FRET.
50 nL of compound dilutions were dispensed onto white 384-well small volume polystyrene plate.

[1] = tested on: IL-8-induced neutrophil shape change in human whole blood; assay: Whole blood neutrophil shape change assay (L); format: cell-based; conditions: IL-8, human whole blood, read-out: Assay L WBSC IC50
PI 3-kinase delta = PI 3-kinase delta (Homo sapiens, UniProt O00329); assay: TR-FRET Adapta assay, assay F; conditions: read-out: Assay F PI3Kδ IC50
Sequence of PI 3-kinase delta (O00329 whole entry): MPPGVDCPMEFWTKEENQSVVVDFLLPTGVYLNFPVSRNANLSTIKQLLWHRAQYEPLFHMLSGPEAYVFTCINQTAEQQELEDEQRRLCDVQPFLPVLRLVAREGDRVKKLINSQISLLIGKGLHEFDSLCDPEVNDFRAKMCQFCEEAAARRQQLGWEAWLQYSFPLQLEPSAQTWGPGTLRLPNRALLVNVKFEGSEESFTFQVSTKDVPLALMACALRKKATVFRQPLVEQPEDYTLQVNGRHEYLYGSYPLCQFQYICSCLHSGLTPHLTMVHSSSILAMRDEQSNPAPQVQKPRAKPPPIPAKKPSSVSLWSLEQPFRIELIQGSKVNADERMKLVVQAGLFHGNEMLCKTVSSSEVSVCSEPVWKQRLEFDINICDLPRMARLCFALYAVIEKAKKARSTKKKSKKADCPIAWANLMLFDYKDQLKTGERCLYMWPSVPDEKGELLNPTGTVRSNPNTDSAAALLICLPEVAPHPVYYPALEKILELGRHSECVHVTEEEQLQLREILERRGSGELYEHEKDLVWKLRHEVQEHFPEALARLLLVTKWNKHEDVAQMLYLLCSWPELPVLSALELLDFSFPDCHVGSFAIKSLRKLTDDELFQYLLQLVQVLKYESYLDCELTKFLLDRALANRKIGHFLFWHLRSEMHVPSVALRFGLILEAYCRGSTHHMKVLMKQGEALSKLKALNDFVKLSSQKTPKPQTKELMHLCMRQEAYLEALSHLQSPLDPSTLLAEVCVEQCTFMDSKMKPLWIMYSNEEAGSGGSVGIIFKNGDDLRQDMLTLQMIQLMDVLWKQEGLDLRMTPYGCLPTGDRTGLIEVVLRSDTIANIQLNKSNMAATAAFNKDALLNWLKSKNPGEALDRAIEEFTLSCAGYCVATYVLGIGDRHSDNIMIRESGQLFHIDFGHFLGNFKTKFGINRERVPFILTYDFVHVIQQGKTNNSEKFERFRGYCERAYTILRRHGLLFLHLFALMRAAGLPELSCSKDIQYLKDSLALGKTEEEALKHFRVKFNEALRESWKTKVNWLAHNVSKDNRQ
Sequence of PI 3-kinase delta (P27986 461-568 partner): as the sequence (P27986 461-568 partner) above

[2] = Microsomal clearance assay (M); conditions: intrinsic clearance in rat liver microsomes
Protocol: The experiments were performed in 96-well glass plates at 37° C. on an automated Tecan EVO platform. Test compounds at a concentration of 10 mM in pure DMSO were diluted 1:1000 in water to 10 μM. […] Reactions were initiated by the addition of 150 μL of a cofactor solution containing 2 mM NADPH.

Compound	IC50 (PI 3-kinase alpha) [nM]	IC50 (PI 3-kinase beta) [nM]	IC50 (Vps34) [nM]	IC50 (PI 4-kinase beta) [nM]	IC50 (PI 3-kinase gamma) [nM]	IC50 (mTOR) [nM]	IC50 ([1]; Homo sapiens, Neutrophil) [nM]	IC50 (PI 3-kinase delta) [nM]	Assay M RLM CI(int) [2] [µL/min/mg]	IC50 [1] [nM]
Cc1nc(C)n(-c2nc(-c3cc(S(=O)(=O)NCC(C)(C)O)ccc3C)cnc2N)n1 [Example 49, 3-(5-Amino-6-(3,5-dimethyl-1H-1,2,4-triazol-1-yl)pyrazin-2-yl)-N-(2-hydroxy-2-methylpropyl)-4-methylbenzenesulfonamide]	620	5300	> 10000	> 10000	49	> 10000	856	1700	20	
CCN1CCC[C@@H]1CNS(=O)(=O)c1ccc(C)c(-c2cnc(N)c(-c3ccnc(C)c3)n2)c1 [Example 129.25, (R)-3-(5-amino-6-(2-methylpyridin-4-yl)pyrazin-2-yl)-N-((1-ethylpyrrolidin-2-yl)methyl)-4-methylbenzenesulfonamide]	540	2300	> 9100	> 9100	42	> 9100	2950	380		
Cc1noc(-c2nc(-c3cc(S(=O)(=O)NCC(C)(C)CO)ccc3C)cnc2N)n1 [Example 92, 3-(5-Amino-6-(3-methyl-1,2,4-oxadiazol-5-yl)pyrazin-2-yl)-N-(3-hydroxy-2,2-dimethylpropyl)-4-methylbenzenesulfonamide]	1400	8200	> 9100	> 9100	73	> 9100	1160	690	64	
Cc1cc(-c2nc(-c3cc(S(=O)(=O)NC4CC(F)(F)C4)ccc3C)cnc2N)ccn1 [Example 129.2, 3-(5-amino-6-(2-methylpyridin-4-yl)pyrazin-2-yl)-N-(3,3-difluorocyclobutyl)-4-methylbenzenesulfonamide]	280	4300	> 9100	7000	22	6100	2420	1200	130	
Cc1cc(-c2nc(-c3cc(S(=O)(=O)NCCC(C)(C)O)ccc3C)cnc2N)on1 [Example 89, 3-(5-Amino-6-(3-methylisoxazol-5-yl)pyrazin-2-yl)-N-(3-hydroxy-3-methylbutyl)-4-methylbenzenesulfonamide]	420	1300	3400	7000		> 10000	3700	840	46	
Cc1ccc(S(=O)(=O)NCC2(O)CCOCC2)cc1-c1cnc(N)c(-n2cncn2)n1 [Example 32, 3-(5-Amino-6-[1,2,4]triazol-1-yl-pyrazin-2-yl)-N-(4-hydroxy-tetrahydropyran-4-ylmethyl)-4-methylbenzenesulfonamide]			> 10000	4050		> 10000	668		28	
Cc1cc(-c2nc(-c3cc(S(=O)(=O)NC4CCC(CO)CC4)ccc3C)cnc2N)ccn1 (stereo not drawn) [Example 129.1, 3-(5-amino-6-(2-methylpyridin-4-yl)pyrazin-2-yl)-N-(4-(hydroxymethyl)cyclohexyl)-4-methylbenzenesulfonamide]	190	6300	> 9100	6500	23	6300	721	250		
Cc1ccc(S(=O)(=O)NCC(C)(C)O)cc1-c1cnc(N)c(-n2cc(C)c(C)n2)n1 [Example 47, 3-(5-Amino-6-(3,4-dimethyl-1H-pyrazol-1-yl)pyrazin-2-yl)-N-(2-hydroxy-2-methylpropyl)-4-methyl benzenesulfonamide]	330	6000	> 10000	8700	49	> 10000	3140	530	140	
Cc1ccc(S(=O)(=O)NCC2(O)CCC2)cc1-c1cnc(N)c(-n2cncn2)n1 [Example 127.16]	330	810	> 10000	5000	45	8700	1720	1100		
Cc1ccc(S(=O)(=O)NCC[C@@H](O)C(F)(F)F)cc1-c1cnc(N)c(-c2cn(C)nc2C)n1 (single isomer, unassigned) [Example 52a, (R)-3-(5-Amino-6-(1,3-dimethyl-1H-pyrazol-4-yl)pyrazin-2-yl)-4-methyl-N-(4,4,4-trifluoro-3-hydroxybutyl)benzenesulfonamide or (S)-3-(5-Amino-6-(1,3-dimethyl-1H-pyrazol-4-yl)pyrazin-2-yl)-4-methyl-N-(4,4,4-trifluoro-3-hydroxybutyl)benzenesulfonamide]	170		> 10000	5500	16				60	806
Cc1ccc(S(=O)(=O)NCC(C)(C)O)cc1-c1cnc(N)c(-c2cnn(C)c2)n1 [Example 46.2, 3-(5-Amino-6-(1-methyl-1H-pyrazol-4-yl)pyrazin-2-yl)-N-(2-hydroxy-2-methylpropyl)-4-methylbenzenesulfonamide]	480	2000	> 10000	6200	54	9700	597	730	49	
Cc1ccc(S(=O)(=O)NC[C@@H]2CCOC2)cc1-c1cnc(N)c(-n2cncn2)n1 [Example 127.26]	570	2000	> 10000	5200	150	5900	1790	230		

Now from value to molecule, other results behind:

IC50 (PI 3-kinase alpha) [nM]	IC50 (PI 3-kinase beta) [nM]	IC50 (Vps34) [nM]	IC50 (PI 4-kinase beta) [nM]	IC50 (PI 3-kinase gamma) [nM]	IC50 (mTOR) [nM]	IC50 ([1]; Homo sapiens, Neutrophil) [nM]	IC50 (PI 3-kinase delta) [nM]	Assay M RLM CI(int) [2] [µL/min/mg]	Compound	IC50 [1] [nM]
270	> 9100	> 9100	5000	38	6500	1170	570	79	Cc1cc(-c2nc(-c3cc(S(=O)(=O)NCC4(O)CCC4)ccc3C)cnc2N)ccn1 [Example 129.5, 3-(5-amino-6-(2-methylpyridin-4-yl)pyrazin-2-yl)-N-((1-hydroxycyclobutyl)methyl)-4-methylbenzenesulfonamide]	
50	200	1900	3000	11		306	80	70	Cc1ncc(-c2nc(-c3cc(S(=O)(=O)NCC4COC4)ccc3C)cnc2N)s1 [Example 45.1, 3-(5-Amino-6-(2-methylthiazol-5-yl)pyrazin-2-yl)-4-methyl-N-(oxetan-3-ylmethyl)benzenesulfonamide]	
300	1100	> 10000	4400	24	2600	1500	880		Cc1ccc(S(=O)(=O)NCC(F)(F)F)cc1-c1cnc(N)c(-n2cncn2)n1 [Example 127, 3-(5-Amino-6-(1H-1,2,4-triazol-1-yl)pyrazin-2-yl)-4-methyl-N-(2,2,2-trifluoroethyl)benzenesulfonamide]	
1400	2300	> 10000	> 10000	100	9300	6280	2100		Cc1ccc(S(=O)(=O)NC[C@@H]2CCC(C)(C)O2)cc1-c1cnc(N)c(-n2cncn2)n1 [Example 127.39]	
260	1300	> 10000	6300	40	1500	3990	1100		Cc1ccc(S(=O)(=O)NC2CC(F)(F)C2)cc1-c1cnc(N)c(-n2cncn2)n1 [Example 127.7]	
1300	1300	> 10000	> 10000	42	1200	23600	460		Cc1ccc(S(=O)(=O)NC[C@H]2CCNC2)cc1-c1cnc(N)c(-n2cncn2)n1 [Example 127.58, (S)-3-(5-amino-6-(1H-1,2,4-triazol-1-yl)pyrazin-2-yl)-4-methyl-N-(pyrrolidin-3-ylmethyl)benzenesulfonamide trifluoroacetic acid salt]	
		> 10000	> 10000		> 10000	2150		60	Cc1ccc(S(=O)(=O)NCC(C)(C)O)cc1-c1cnc(N)c(-c2nc(C(C)C)no2)n1 [Example 97, 3-(5-Amino-6-(3-isopropyl-1,2,4-oxadiazol-5-yl)pyrazin-2-yl)-N-(2-hydroxy-2-methylpropyl)-4-methylbenzenesulfonamide]	
